Results reported in ChEMBL document CHEMBL1141099, “Discovery of N-(2,6-dimethylphenyl)-substituted semicarbazones as anticonvulsants: hybrid pharmacophore-based design” (2005).
Activity calls are given as the source filed them. The rule behind the calls is not given here.

Key:
Mus musculus [1] = assay: Minimum dose required for anticonvulsant activity when given i.p., at 0.5 hr in mice upon neurotoxicity seizure using rotarod test; assay type: functional
Rattus norvegicus [2] = assay: Effective dose required for anticonvulsant activity when given i.p., at 2 hr in rat upon maximal electroshock seizure; assay type: functional; settings: ip
Rattus norvegicus [3] = assay: Toxic dose observed for anticonvulsant activity when given orally at 2 hr in rat upon neurotoxicity seizure; assay type: functional; settings: po
Rattus norvegicus [4] = assay: Enzymatic activity to assess the increase in level of SGPT at a dose of 30 mg/Kg for 14 days when given p.o., in 6 rats; Control 45.0; assay type: functional
Rattus norvegicus [5] = assay: Number of rats protected at a dose of 30 mg/Kg when given oral at 4 hr upon maximal electroshock seizure; Total number of rats = 4; assay type: functional
Mus musculus [6] = assay: Post treatment activity score for CNS study using a actophotometer at a dose of 100 mg/Kg after 0.5 hr when given i.p., in mice (No. of animals 6); Control (24h before) 247
Rattus norvegicus [7] = assay: Minimum dose required for anticonvulsant activity when given i.p., at 2 hr in mice upon subcutaneous strychnine seizure; Absence of activity; assay type: functional, organism-based; settings: Mus musculus
Mus musculus [8] = assay: Minimum dose required for anticonvulsant activity when given i.p., in mice upon neurotoxicity seizure using rotarod test
Rattus norvegicus [9] = assay: Number of rats protected at a dose of 30 mg/Kg when given oral at 0.25 hr upon maximal electroshock seizure; Total number of rats = 4; assay type: functional
Rattus norvegicus [10] = assay: Number of rats protected at a dose of 30 mg/Kg when given oral at 0.5 hr upon maximal electroshock seizure; Total number of rats = 4; assay type: functional
Rattus norvegicus [11] = assay: Number of rats protected at a dose of 30 mg/Kg when given oral at 2 hr upon maximal electroshock seizure; Total number of rats = 4; assay type: functional
Mus musculus [12] = assay: Post treatment activity score for CNS study using a actophotometer at a dose of 100 mg/Kg after 1 hr when given i.p., in mice (No. of animals 6); Control (24h before) 247
Mus musculus [13] = assay: Minimum dose required for anticonvulsant activity when given i.p., at 0.5 hr in mice upon maximal electroshock seizure; assay type: functional
Rattus norvegicus [14] = assay: Minimum dose required for anticonvulsant activity when given i.p., in mice upon subcutaneous picrotoxin seizure; Absence of activity; assay type: functional, organism-based; settings: Mus musculus
Rattus norvegicus [15] = assay: Toxic dose observed for anticonvulsant activity when given i.p., at 2 hr in rat upon neurotoxicity seizure; assay type: functional; settings: ip
Mus musculus [16] = assay: Minimum dose required for anticonvulsant activity when given i.p., at 4 hr in mice upon maximal electroshock seizure; assay type: functional
Rattus norvegicus [17] = assay: Minimum dose required for anticonvulsant activity when given i.p., at 0.5 hr in mice upon subcutaneous pentylenetetrazole seizure; Absence of activity; assay type: functional, organism-based; settings: Mus musculus
Rattus norvegicus [18] = assay: Number of rats protected at a dose of 30 mg/Kg when given oral at 1 hr upon maximal electroshock seizure; Total number of rats = 4; assay type: functional
Rattus norvegicus [19] = assay: Enzymatic activity to assess the increase in level of SGOT at a dose of 30 mg/Kg for 14 days when given p.o., in 6 rats; Control 73.1; assay type: functional
Rattus norvegicus [20] = assay: Number of rats protected at a dose of 30 mg/Kg when given oral at 4 hr upon maximal electroshock seizure; Total number of rats = 4; Absence of activity; assay type: functional, organism-based
Rattus norvegicus [21] = assay: Number of rats protected at a dose of 30 mg/Kg when given oral at 1 hr upon maximal electroshock seizure; Total number of rats = 4; Absence of activity; assay type: functional, organism-based
Rattus norvegicus [22] = assay: Number of rats protected at a dose of 30 mg/Kg when given oral at 0.25 hr upon maximal electroshock seizure; Total number of rats = 4; Absence of activity; assay type: functional, organism-based
Rattus norvegicus [23] = assay: Number of rats protected at a dose of 30 mg/Kg when given oral at 2 hr upon maximal electroshock seizure; Total number of rats = 4; Absence of activity; assay type: functional, organism-based
Rattus norvegicus [24] = assay: Number of rats protected at a dose of 30 mg/Kg when given oral at 0.5 hr upon maximal electroshock seizure; Total number of rats = 4; Absence of activity; assay type: functional, organism-based
Mus musculus [25] = assay: Post treatment immobility time for CNS study using Porsolt's swimpool test at a dose of 100 mg/Kg after 1 hr when given i.p., in mice (No. of animals 6); Control (24h before) 131
Mus musculus [26] = assay: Minimum dose required for anticonvulsant activity when given i.p., at 0.5 hr in mice upon subcutaneous pentylenetetrazole seizure; assay type: functional

Structure (SMILES): O=C1NC(=O)C(c2ccccc2)(c2ccccc2)N1 [PHENYTOIN]
- NT (Mus musculus [1]): 100 mg/kg
- ED50 (Rattus norvegicus [2]): 6.48 mg/kg
- TD50 (Rattus norvegicus [3]): > 500 mg/kg
- SGPT activity (Rattus norvegicus [4]): 52.6 units/mL
- Activity (Rattus norvegicus [5]): 3
- Activity (Mus musculus [6]): 104
- STY seizure (Rattus norvegicus [7]): inactive
- NT (Mus musculus [8]): 100 mg/kg
- Activity (Rattus norvegicus [9]): 1
- Activity (Rattus norvegicus [10]): 4
- Activity (Rattus norvegicus [11]): 3
- Activity (Mus musculus [12]): 106
- MES (Mus musculus [13]): 30 mg/kg
- PIC seizure (Rattus norvegicus [14]): inactive
- TD50 (Rattus norvegicus [15]): 42.8 mg/kg
- MES (Mus musculus [16]): 30 mg/kg
- PTZ seizure (Rattus norvegicus [17]): inactive
- Activity (Rattus norvegicus [18]): 3
- SGOT activity (Rattus norvegicus [19]): 84.1 units/mL

Structure (SMILES): NC(=O)N1c2ccccc2C=Cc2ccccc21 [CARBAMAZEPINE]
- NT (Mus musculus [1]): 100 mg/kg
- STY seizure (Rattus norvegicus [7]): inactive
- Activity (Rattus norvegicus [20]): inactive
- Activity (Rattus norvegicus [21]): inactive
- Activity (Rattus norvegicus [22]): inactive
- MES (Mus musculus [13]): 30 mg/kg
- Activity (Rattus norvegicus [23]): inactive
- MES (Mus musculus [16]): 100 mg/kg
- Activity (Rattus norvegicus [24]): inactive
- Activity (Mus musculus [25]): 207
- PTZ seizure (Mus musculus [26]): 100 mg/kg
